Source: patent publication US20170057955A1, “Pyridopyrimidinone Compounds for Modulating the Catalytic Activity of Histone Lysine Demethylases (KDMs)” (Dong-A Socio Holdings Co., Ltd., priority 2015, published 2017)

Target: T1, Recombinant human JARID1B/KDM5B (Homo sapiens, UniProt Q9UGL1)
T1 construct: purchased Active Motif 31432; host or cells: Sf9 insect cells
Assay: LANCE Ultra TR-FRET JARID1B (KDM5B) demethylase inhibition assay
Assay type: biochemical
Conditions: 0.1 uM of test-compounds, FLAG-JARID1B, 500 nM biotinylated H3K4me3 peptide substrate, 30 min at room temperature
Excerpt: FLAG-tagged JARID1B (also known as KDM5B) protein was screened against 49 compounds. For this compound screening, LANCE Ultra time-resolved fluorescence resonance energy transfer (TR-FRET) assay was employed using a europoium (Eu)-labeled antibody that can specifically recognize mono- or dimethylated peptides (H3K4me2/1) and ULight-streptavidin (ULight-SA), a small molecule fluorescent dye. When irradiated at 340 nm, the energy from the Eu donor is transferred to the ULight acceptor dye which, in turn, emits light primarily at 665 nm. The ratio between the intensity of primary emission at 665 nm and that of secondary emission at […] was used to quantify the level of lysine methylation. As JARID1B removes more methyl moieties from tri-methylated substrate peptides (H3K4me3), the ratio increases until the enzyme reaction is terminated. In case, therefore, the compounds disrupt the enzymatic activity completely, the ratio becomes equal to a background value.
Recombinant human JARID1B/KDM5B (accession number NP_006609) of molecular weight 179.9 KDa was expressed in Sf9 insect cells and contains an N-terminal FLAG tag. The enzyme was obtained from Active Motif (Catalog No. 31432). The tri-methylated histone substrate peptide of purity greater than 95% was a synthetic peptide in which the first 21 amino acids correspond to the human histone H3 sequence with three extra amino acids and a biotin motif (GGK-biotin) linked to the C-terminus [sequence: ART-K(Me3)-QTARKSTGGKAPRKQLA-GGK-biotin-OH], (AnaSpec, Fremont, Calif. Catalog. No. ANA-1413). The reference inhibitor compound tranylcypromine (or trans-2-phenylcyclopropylamine hydrochloride, also known as, 2-PCPA) was purchased from Sigma (St. Louis, Mo. Cat. no. P8511). ULight-labeled streptavidin (ULight-SA, Catalog no. TRF0102), Eu-W1024-labeled anti-methyl-Histone H3 Lysine 4 (H3K4me1-2) Antibody (Catalog no. TRF0402), and LANCE detection buffer 10× (Catalog no. CR97-100) were obtained from PerkinElmer (Montreal, Quebec, Canada). The TR-FRET experiments were carried out in white, low-volume 384-wellplates purchased from PerkinElmer (ProxiPlate_-384 Plus, Catalog no. 6008280).
The TR-FRET signal was measured in the presence both of the bio-H3K4me3 peptide and FLAG-JARID1B by detecting any H3K4me2/1 peptide produced in the assay system. Assays using only the bio-H3K4me2 peptide were served as a positive control. Robust enzymatic progressions were observed by using JARID1B at concentrations ranging from 10 to 30 nM. In a typical TR-FRET experiment, JARID1B was pre-incubated with or without 0.1 uM of test-compounds (containing 1% DMSO final) for 5 min. The enzymatic reactions were initiated by the addition of 500 nM biotinylated H3K4me3 peptide substrate plus 500 uM of 2-OG 25 uM Fe(II) and 2 mM ascorbate. The reaction buffer also contained 50 mM Hepes (pH7.5), 0.01% (v/v) Tween 20, and 50 mM NaCl. The reaction mixture was incubated for 30 min at room temperature before reading on an EnVision plate reader (PerkinElmer, Waltham, Mass.).

T1 sequence (Q9UGL1 whole entry): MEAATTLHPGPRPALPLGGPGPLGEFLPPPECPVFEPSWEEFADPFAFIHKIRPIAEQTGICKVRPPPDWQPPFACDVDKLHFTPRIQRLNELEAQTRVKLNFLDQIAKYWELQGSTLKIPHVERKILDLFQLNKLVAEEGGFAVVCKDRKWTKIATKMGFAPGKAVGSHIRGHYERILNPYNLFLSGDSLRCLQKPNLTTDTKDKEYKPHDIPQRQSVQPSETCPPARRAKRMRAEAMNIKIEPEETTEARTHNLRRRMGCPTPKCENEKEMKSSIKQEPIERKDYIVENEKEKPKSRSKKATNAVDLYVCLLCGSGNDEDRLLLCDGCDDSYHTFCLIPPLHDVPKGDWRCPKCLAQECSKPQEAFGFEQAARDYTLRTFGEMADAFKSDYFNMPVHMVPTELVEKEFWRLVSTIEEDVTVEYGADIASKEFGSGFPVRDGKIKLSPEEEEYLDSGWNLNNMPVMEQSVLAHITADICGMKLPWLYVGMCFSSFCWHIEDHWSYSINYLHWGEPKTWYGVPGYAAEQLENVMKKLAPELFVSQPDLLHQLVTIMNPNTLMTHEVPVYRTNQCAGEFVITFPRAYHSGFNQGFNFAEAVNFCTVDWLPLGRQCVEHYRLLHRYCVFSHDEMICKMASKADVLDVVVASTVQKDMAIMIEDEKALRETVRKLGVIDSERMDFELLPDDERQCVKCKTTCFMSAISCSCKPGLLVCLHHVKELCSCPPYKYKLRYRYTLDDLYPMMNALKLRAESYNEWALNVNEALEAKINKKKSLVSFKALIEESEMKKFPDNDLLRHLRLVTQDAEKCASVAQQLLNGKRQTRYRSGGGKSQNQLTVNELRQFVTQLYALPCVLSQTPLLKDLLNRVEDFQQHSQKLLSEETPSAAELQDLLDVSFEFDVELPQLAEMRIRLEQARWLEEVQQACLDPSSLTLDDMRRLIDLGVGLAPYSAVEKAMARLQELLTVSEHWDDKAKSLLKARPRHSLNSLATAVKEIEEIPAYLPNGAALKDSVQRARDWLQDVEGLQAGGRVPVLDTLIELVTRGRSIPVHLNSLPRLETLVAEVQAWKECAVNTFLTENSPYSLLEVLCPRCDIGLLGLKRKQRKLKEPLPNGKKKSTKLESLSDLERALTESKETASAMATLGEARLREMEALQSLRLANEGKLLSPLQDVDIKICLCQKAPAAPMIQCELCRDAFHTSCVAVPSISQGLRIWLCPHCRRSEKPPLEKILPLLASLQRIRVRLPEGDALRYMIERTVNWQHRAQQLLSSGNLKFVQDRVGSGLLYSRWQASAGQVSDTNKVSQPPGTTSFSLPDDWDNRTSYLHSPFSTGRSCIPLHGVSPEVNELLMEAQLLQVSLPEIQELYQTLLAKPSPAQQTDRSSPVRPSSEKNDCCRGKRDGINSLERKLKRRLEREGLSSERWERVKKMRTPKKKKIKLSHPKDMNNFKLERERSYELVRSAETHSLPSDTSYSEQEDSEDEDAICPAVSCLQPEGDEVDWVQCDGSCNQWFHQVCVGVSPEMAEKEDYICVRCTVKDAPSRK

Row | SMILES | inhibition at 0.1 µM [%]
1 | Cc1cccc(-c2cnn(-c3nccc4c(=O)[nH]cnc34)c2)c1 [Compound 1, 8-(4-(m-tolyl)-1H-pyrazol-1-yl)pyrido[3,4-d]pyrimidin-4(3H)-one] | < 20
2 | CN1CCN(Cc2ccc(-c3cnn(-c4nccc5c(=O)[nH]cnc45)c3)cc2)CC1 [Compound 2, 8-(4-(4-((4-methylpiperazin-1-yl)methyl)phenyl)-1H-pyrazol-1-yl)pyrido[3,4-d]pyrimidin-4(3H)-one] | < 20
3 | O=c1[nH]cnc2c(-n3cc(-c4cccc(CO)c4)cn3)nccc12 [Compound 3, 8-(4-(3-(hydroxymethyl)phenyl)-1H-pyrazol-1-yl)pyrido[3,4-d]pyrimidin-4(3H)-one] | < 20
4 | O=c1[nH]cnc2c(-n3cc(-c4ccc(F)cc4)cn3)nccc12 [Compound 4, 8-(4-(4-fluorophenyl)-1H-pyrazol-1-yl)pyrido[3,4-d]pyrimidin-4(3H)-one] | < 20
5 | O=c1[nH]cnc2c(-n3cc(-c4cccc(OCc5ccccc5)c4)cn3)nccc12 [Compound 5, 8-(4-(3-(benzyloxy)phenyl)-1H-pyrazol-1-yl)pyrido[3,4-d]pyrimidin-4(3H)-one] | < 20
6 | CN1CCN(Cc2cccc(-c3cnn(-c4nccc5c(=O)[nH]cnc45)c3)c2)CC1 [Compound 6, 8-(4-(3-((4-methylpiperazin-1-yl)methyl)phenyl)-1H-pyrazol-1-yl)pyrido[3,4-d]pyrimidin-4(3H)-one] | < 20
7 | O=c1[nH]cnc2c(-n3cc(-c4cccc(CCCO)c4)cn3)nccc12 [Compound 7, 8-(4-(3-(3-hydroxypropyl)phenyl)-1H-pyrazol-1-yl)pyrido[3,4-d]pyrimidin-4(3H)-one] | < 20
8 | O=c1[nH]cnc2c(-n3cc(-c4ccccc4CO)cn3)nccc12 [Compound 9, 8-(4-(2-(hydroxymethyl)phenyl)-1H-pyrazol-1-yl)pyrido[3,4-d]pyrimidin-4(3H)-one] | < 20
9 | O=c1[nH]cnc2c(-n3cc(-c4ccccc4Oc4ccccc4)cn3)nccc12 [Compound 10, 8-(4-(2-phenoxyphenyl)-1H-pyrazol-1-yl)pyrido[3,4-d]pyrimidin-4(3H)-one] | < 20
10 | Cn1cc(-c2cnn(-c3nccc4c(=O)[nH]cnc34)c2)cn1 [Compound 11, 8-(1′-methyl-1H,1′H-[4,4′-bipyrazol]-1-yl)pyrido[3,4-d]pyrimidin-4(3H)-one] | < 20
11 | O=c1[nH]cnc2c(-n3cc(-c4cccnc4)cn3)nccc12 [Compound 12, 8-(4-(pyridin-3-yl)-1H-pyrazol-1-yl)pyrido[3,4-d]pyrimidin-4(3H)-one] | < 20
12 | O=c1[nH]cnc2c(-n3cc(-c4cnn(Cc5ccccc5)c4)cn3)nccc12 [Compound 13, 8-(1′-benzyl-1H,1′H-[4,4′-bipyrazol]-1-yl)pyrido[3,4-d]pyrimidin-4(3H)-one] | < 20
13 | Nc1nn(-c2nccc3c(=O)[nH]cnc23)cc1-c1ccc(N2CCNCC2)nc1 [Compound 14, 8-(3-amino-4-(6-(piperazin-1-yl)pyridin-3-yl)-1H-pyrazol-1-yl)pyrido[3,4-d]pyrimidin-4(3H)-one] | 20 to 50
14 | Cn1cc(-c2cn(-c3nccc4c(=O)[nH]cnc34)nc2N)cn1 [Compound 15, 8-(3-amino-1′-methyl-1H,1′H-[4,4'-bipyrazol]-1-yl)pyrido[3,4-d]pyrimidin-4(3H)-one] | 20 to 50
15 | Nc1nn(-c2nccc3c(=O)[nH]cnc23)cc1-c1cccnc1 [Compound 16, 8-(3-amino-4-(pyridin-3-yl)-1H-pyrazol-1-yl)pyrido[3,4-d]pyrimidin-4(3H)-one] | < 20
16 | CN1CCN(c2ccc(-c3cn(-c4nccc5c(=O)[nH]cnc45)nc3N)cc2)CC1 [Compound 17, 8-(3-amino-4-(4-(4-methylpiperazin-1-yl)phenyl)-1H-pyrazol-1-yl)pyrido[3,4-d]pyrimidin-4(3H)-one] | 20 to 50

Row | SMILES | inhibition at 0.1 µM [%]
17 | CC(=O)Nc1ccc(-c2cn(-c3nccc4c(=O)[nH]cnc34)nc2N)cc1 [Compound 18, N-(4-(3-amino-1-(4-oxo-3,4-dihydropyrido[3,4-d]pyrimidin-8-yl)-1H-pyrazol-4-yl)phenyl)acetamide] | 20 to 50
18 | Nc1nn(-c2nccc3c(=O)[nH]cnc23)cc1-c1ccc(CCCO)cc1 [Compound 19, 8-(3-amino-4-(4-(3-hydroxypropyl)phenyl)-1H-pyrazol-1-yl)pyrido[3,4-d]pyrimidin-4(3H)-one] | 20 to 50
19 | Nc1nn(-c2nccc3c(=O)[nH]cnc23)cc1-c1cccc(N2CCNCC2)c1 [Compound 20, 8-(3-amino-4-(3-(piperazin-1-yl)phenyl)-1H-pyrazol-1-yl)pyrido[3,4-d]pyrimidin-4(3H)-one] | ≥ 50
20 | Nc1nn(-c2nccc3c(=O)[nH]cnc23)cc1-c1ccc(C(=O)N2CCOCC2)cc1 [Compound 21, 8-(3-amino-4-(4-(morpholine-4-carbonyl)phenyl)-1H-pyrazol-1-yl)pyrido[3,4-d]pyrimidin-4(3H)-one] | ≥ 50
21 | Nc1nn(-c2nccc3c(=O)[nH]cnc23)cc1-c1cnn(C2CCNCC2)c1 [Compound 22, 8-(3-amino-1′-(piperidin-4-yl)-1H,1′H-[4,4′-bipyrazol]-1-yl)pyrido[3,4-d]pyrimidin-4(3H)-one] | ≥ 50
22 | Nc1nn(-c2nccc3c(=O)[nH]cnc23)cc1-c1ccc(F)cc1 [Compound 23, 8-(3-amino-4-(4-fluorophenyl)-1H-pyrazol-1-yl)pyrido[3,4-d]pyrimidin-4(3H)-one] | ≥ 50
23 | CC(=O)c1ccc(-c2cn(-c3nccc4c(=O)[nH]cnc34)nc2N)cc1 [Compound 24, 8-(4-(4-acetylphenyl)-3-amino-1H-pyrazol-1-yl)pyrido[3,4-d]pyrimidin-4(3H)-one] | ≥ 50
24 | Nc1nn(-c2nccc3c(=O)[nH]cnc23)cc1-c1ccc(O)cc1 [Compound 25, 8-(3-amino-4-(4-hydroxyphenyl)-1H-pyrazol-1-yl)pyrido[3,4-d]pyrimidin-4(3H)-one] | 20 to 50
25 | Nc1nn(-c2nccc3c(=O)[nH]cnc23)cc1-c1cnn(CCO)c1 [Compound 26, 8-(3-amino-1′-(2-hydroxyethyl)-1H,1′H-[4,4′-bipyrazol]-1-yl)pyrido[3,4-d]pyrimidin-4(3H)-one] | 20 to 50
26 | Nc1nn(-c2nccc3c(=O)[nH]cnc23)cc1-c1cnn(CCN2CCCC2)c1 [Compound 27, 8-(3-amino-1′-(2-(pyrrolidin-1-yl)ethyl)-1H,1′H-[4,4′-bipyrazol]-1-yl)pyrido[3,4-d]pyrimidin-4(3H)-one] | 20 to 50
27 | Nc1nn(-c2nccc3c(=O)[nH]cnc23)cc1-c1cnn(Cc2ccccc2)c1 [Compound 28, 8-(3-amino-1′-benzyl-1H,1′H-[4,4′-bipyrazol]-1-yl)pyrido[3,4-d]pyrimidin-4(3H)-one] | ≥ 50
28 | Nc1nn(-c2nccc3c(=O)[nH]cnc23)cc1-c1cnn(CCN2CCOCC2)c1 [Compound 29, 8-(3-amino-1′-(2-morpholinoethyl)-1H,1′H-[4,4′-bipyrazol]-1-yl)pyrido[3,4-d]pyrimidin-4(3H)-one] | 20 to 50
29 | CN1CCN(CCn2cc(-c3cn(-c4nccc5c(=O)[nH]cnc45)nc3N)cn2)CC1 [Compound 30, 8-(3-amino-1′-(2-(4-methylpiperazin-1-yl)ethyl)-1H,1′H-[4,4′-bipyrazol]-1-yl)pyrido[3,4-d]pyrimidin-4(3H)-one] | 20 to 50
30 | Nc1nn(-c2nccc3c(=O)[nH]cnc23)cc1-c1cccc(OCc2ccccc2)c1 [Compound 31, 8-(3-amino-4-(3-(benzyloxy)phenyl)-1H-pyrazol-1-yl)pyrido[3,4-d]pyrimidin-4(3H)-one] | ≥ 50
31 | Nc1nn(-c2nccc3c(=O)[nH]cnc23)cc1-c1cccc(Cl)c1 [Compound 32, 8-(3-amino-4-(3-chlorophenyl)-1H-pyrazol-1-yl)pyrido[3,4-d]pyrimidin-4(3H)-one] | 20 to 50
